Results on two compounds are retold here after patent publication US20110312495A1, “SYNERGISTIC HERBICIDAL COMPOSITION CONTAINING CLOPYRALID AND FLORASULAM” (DOW AGROSCIENCES LLC, priority 2010, published 2011).

Structures are written as SMILES.

Common to all, as to assay: Postemergence herbicidal activity under field conditions, visual weed control
What all share (type): in vivo
Common to all, as to conditions: field trial #1, 45 to 92 days after application

For test [1], the system named is Bachelor's button (Centaurea cyanus, CENCY). Here is the method:
(§1) These trials were conducted under field conditions in Germany. Trial sites were located in commercially grown winter barley and winter rye. The crops were grown using normal cultural practices for fertilization, seeding, and maintenance to ensure good growth of the crop and the weeds. The trials were conducted using normal research methodology. Trial plots were between 2.5 to 3 meters (m) wide by 6 to 10 m long. All treatments were applied using a randomized complete block trial design with 3 replications per treatment. The trial sites had naturally occurring populations of weeds. The weed spectrum included, but was not limited to, scentless mayweed (Matricaria inodora, MATIN), field forget-me-not (Myosotis arvensis, MYOAR), and Bachelor's button (Centaurea cyanus, CENCY).
(§2) Treatments consisted of formulated products applied in water. The application volumes were 200 liter per hectare (L/ha). All application were made using precision bicycle sprayers using a 3 m boom using flat fan (80° or 110°) nozzles to broadcast the treatments on the testing plots.
(§3) The treated plots and control plots were rated blind at various intervals after application. Ratings were based of Percent (%) Visual weed control, where 0 corresponds to no injury and 100 corresponds to complete kill. […]

Test [2] relates to scentless mayweed (Matricaria inodora, MATIN). Here is the method:
as §1, §2, §3

The subject of test [3] is field forget-me-not (Myosotis arvensis, MYOAR). Here is the method: as §1, §2, §3

Regarding `COc1ncc(F)c2nc(S(=O)(=O)Nc3c(F)cccc3F)nn12` [Florasulam, 2′,6′,8-trifluoro-5-methoxy[1,2,4]triazolo[1,5-c]-pyrimidine-2-sulfonanilide], the “CENCY Obs - Percent control observed” value worked out at 20% in test [1] (florasulam 2.5 g ai/ha alone), 40% in test [1] (florasulam 3.75 g ai/ha alone) and 70% in test [1] (florasulam 5 g ai/ha alone). For the same compound, the “MATIN Obs - Percent control observed” value in test [2] (florasulam 2.5 g ai/ha alone) stood at 60%; in test [2] (florasulam 3.75 g ai/ha alone) it was 67%; in test [2] (florasulam 5 g ai/ha alone) it was 53%. For the same compound, the “MYOAR Obs - Percent control observed” value in test [3] (florasulam 2.5 g ai/ha alone) is 50%; in test [3] (florasulam 3.75 g ai/ha alone), 50%; in test [3] (florasulam 5 g ai/ha alone), 67%.
Consider `O=C(O)c1nc(Cl)ccc1Cl` [Clopyralid, 3,6-dichloropyridine-2-carboxylic acid], for which the “CENCY Obs - Percent control observed” value stood at 37% in test [1] (clopyralid 30 g ae/ha alone), 57% in test [1] (clopyralid 45 g ae/ha alone) and 73% in test [1] (clopyralid 60 g ae/ha alone). In addition, the results for the “MATIN Obs - Percent control observed” value in test [2] (clopyralid 30 g ae/ha alone), in test [2] (clopyralid 45 g ae/ha alone) and in test [2] (clopyralid 60 g ae/ha alone) were 0%, 50% and 58%, respectively. The “MYOAR Obs - Percent control observed” value in test [3] (clopyralid 30 g ae/ha alone), in test [3] (clopyralid 45 g ae/ha alone) and in test [3] (clopyralid 60 g ae/ha alone) was 0% in each case.
